Measurements reported in ChEMBL document CHEMBL5113542, “Highly Potent and Oral Macrocyclic Peptides as a HIV-1 Protease Inhibitor: mRNA Display-Derived Hit-to-Lead Optimization” (ACS Med Chem Lett, 2022).
pEC50, pIC50: −log10 of the molar value. Starred links: 1 amine or outer side, 2 acyl side, 3 side chain; linkers in the order of their positions; H or OH if unused. Positions of bridges follow the written chain, without caps; N, C: chain ends. Non-standard residues stand in square brackets, D forms with d. Residues, ends and D or L forms follow the SMILES beside them. X3 = O=C([C@H](CCC1=CCC(F)(F)CC1)N[*:1])[*:2]; Trp(1-Me) = Cn1cc(C[C@H](N)C(=O)O)c2ccccc21; 1Nal = N[C@@H](Cc1cccc2ccccc12)C(=O)O; NHCH2CH2SCH2CO = O=C(CSCCN[*:1])[*:2]; NMeF = CN[C@@H](Cc1ccccc1)C(=O)O; hCha = N[C@@H](CCC1CCCCC1)C(=O)O; hPhe = N[C@@H](CCc1ccccc1)C(=O)O; X1 = CC(C)(CN[*:1])SCC(=O)[*:2]; X2 = CC(C)(SCCN[*:1])C(=O)[*:2]; Pen = CC(C)(S)[C@H](N)C(=O)O; αMeV = CC(C)[C@](C)(N)C(=O)O; αMeP = C[C@@]1(C(=O)O)CCCN1

Assays:
[1] = Metabolic stability in rat liver microsomes incubated for 30 mins in the presence of NADPH by LC-MS/MS analysis; type: ADME, Microsome; conditions: read-out: Stability
[2] = Metabolic stability in human liver microsomes incubated for 30 mins in the presence of NADPH by LC-MS/MS analysis; type: ADME, Microsome; conditions: read-out: Stability
[3] = Half-life in Sprague-Dawley rat at 2 umol/kg, po or 1 umol/kg, iv administered as single dose by LC-MS/MS analysis; type: ADME, organism-based; conditions: in vivo, dose 2 µmol/kg
[4] = Volume of distribution at steady state in Sprague-Dawley rat at 2 umol/kg, po or 1 umol/kg, iv administered as single dose by LC-MS/MS analysis; type: ADME, organism-based; conditions: in vivo, dose 1 µmol/kg
[5] = Unbound fraction in rat serum measured after 24 hrs by equilibrium dialysis based LC-MS/MS analysis; type: ADME, cell-free
[6] = target: Human immunodeficiency virus type 1 protease (Human immunodeficiency virus 1, UniProt Q72874); assay: Inhibition of HIV-1 protease using EDANS-RESGIFLETSKR-DABCYL as substrate preincubated for 15 mins followed by substrate addition and measured after 60 mins by fluorescence based assay
[7] = test system: Human immunodeficiency virus 1; assay: Anti-HIV activity against HIV-1 3B strain infected in human MT4 cells assessed as inhibition of virus-induced cell death preincubated with compound for 1 hrs followed by viral infection and measured after 4 days by MTT assay; type: functional, organism-based; conditions: Human immunodeficiency virus 1, 3B
[8] = Oral bioavailability in Sprague-Dawley rat at 2 umol/kg administered as single dose by LC-MS/MS analysis; type: ADME, organism-based; conditions: in vivo, at 2 µmol/kg
[9] = Metabolic stability in human liver S9 fraction incubated for 60 mins by LC-MS/MS analysis; type: ADME, subcellular; conditions: read-out: Stability
[10] = Solubility of the compound at pH 6.8 incubated for 1 hrs in the presence of taurocholic acid by UHPLC/MS analysis; type: physicochemical; conditions: medium containing taurocholic acid

| SMILES | remaining at 0.5 h [1] [%] | remaining at 0.5 h [2] [%] | half-life [3] [h] | Vdss [4] [L/kg] | fraction unbound at 24 h [5] | pIC50 [6] | pEC50 [7] | bioavailability [8] [%] | remaining at 1 h [9] [%] | solubility at 1 h [10] [µM] |
| --- | --- | --- | --- | --- | --- | --- | --- | --- | --- | --- |
| CC(C)C[C@@H]1NC(=O)[C@H](C(C)C)NC(=O)[C@]2(C)CCCN2C(=O)[C@H](C(C)C)NC(=O)[C@H](Cc2ccccc2)NC(=O)CSCCNC(=O)[C@H](C)NC(=O)[C@H](Cc2ccccc2)N(C)C(=O)[C@H](CC(C)C)NC(=O)[C@H](CCC2CCCCC2)NC1=O (cyclo(A[NHCH2CH2SCH2CO]FV[αMeP]VL[hCha]L[NMeF])) | 53 | 8 | 1.6 | 0.8 | 0.001 | 9.55 | 7.62 | – | – | – |
| CC(C)C[C@@H]1NC(=O)[C@H](C(C)C)NC(=O)[C@]2(C)CCCN2C(=O)[C@H](C(C)C)NC(=O)[C@H](Cc2ccccc2)NC(=O)CSC(C)(C)CNC(=O)[C@H](C)NC(=O)[C@H](Cc2ccccc2)N(C)C(=O)[C@H](CC(C)C)NC(=O)[C@H](CCC2CCCCC2)NC1=O (cyclo(A[X1]FV[αMeP]VL[hCha]L[NMeF])) | 60 | 20 | 2 | 0.7 | 0.001 | 9.21 | 7.96 | 0.2 | – | – |
| CC(C)C[C@@H]1NC(=O)[C@H](C(C)C)NC(=O)[C@]2(C)CCCN2C(=O)[C@H](C(C)C)NC(=O)[C@H](Cc2ccccc2)NC(=O)C(C)(C)SCCNC(=O)[C@H](C)NC(=O)[C@H](Cc2ccccc2)N(C)C(=O)[C@H](CC(C)C)NC(=O)[C@H](CCC2CCCCC2)NC1=O (cyclo(A[X2]FV[αMeP]VL[hCha]L[NMeF])) | 46 | 28 | – | – | – | 7.82 | 6.82 | – | – | – |
| CC(C)C[C@@H]1NC(=O)[C@H](C(C)C)NC(=O)[C@@H]2CCCN2C(=O)[C@H](C(C)C)NC(=O)[C@H](Cc2ccccc2)NC(=O)CSCCNC(=O)CNC(=O)[C@H](Cc2ccccc2)N(C)C(=O)[C@H](CC(C)C)NC(=O)[C@H](Cc2c[nH]c3ccccc23)NC1=O (cyclo(FVPVLWL[NMeF]G[NHCH2CH2SCH2CO])) | 29 | 3 | 0.7 | 0.1 | 0.011 | 9.00 | 6.02 | – | 23 | 26 |
| CC(C)C[C@@H]1NC(=O)[C@H](C(C)C)NC(=O)[C@@H]2CCCN2C(=O)[C@H](C(C)C)NC(=O)[C@H](Cc2ccccc2)NC(=O)CSCCNC(=O)[C@H](Cc2ccccc2)N(C)C(=O)[C@H](CC(C)C)NC(=O)[C@H](Cc2c[nH]c3ccccc23)NC1=O (cyclo(FVPVLWL[NMeF][NHCH2CH2SCH2CO])) | – | – | – | – | – | 8.09 | 6.21 | – | – | – |
| CC(C)C[C@@H]1NC(=O)[C@H](C(C)C)NC(=O)[C@@H]2CCCN2C(=O)[C@H](C(C)C)NC(=O)[C@H](Cc2ccccc2)NC(=O)CSCCNC(=O)[C@H](Cc2ccccc2)N(C)C(=O)[C@H](CC(C)C)NC(=O)[C@H](Cc2cn(C)c3ccccc23)NC1=O (cyclo(FVPVL[Trp(1-Me)]L[NMeF][NHCH2CH2SCH2CO])) | – | – | – | – | – | 8.10 | 5.82 | – | – | – |
| CC(C)C[C@@H]1NC(=O)[C@H](C(C)C)NC(=O)[C@]2(C)CCCN2C(=O)[C@H](C(C)C)NC(=O)[C@H](Cc2ccccc2)NC(=O)CSCCNC(=O)[C@H](Cc2ccccc2)N(C)C(=O)[C@H](CC(C)C)NC(=O)[C@H](CCC2=CCC(F)(F)CC2)NC1=O (cyclo(FV[αMeP]VL[X3]L[NMeF][NHCH2CH2SCH2CO])) | – | – | – | – | – | 9.68 | 8.00 | – | – | – |
| CC(C)C[C@@H]1NC(=O)[C@H](C(C)C)NC(=O)[C@]2(C)CCCN2C(=O)[C@H](C(C)C)NC(=O)[C@H](Cc2ccccc2)NC(=O)CSCCNC(=O)[C@H](Cc2ccccc2)NC(=O)[C@H](Cc2ccccc2)N(C)C(=O)[C@H](CC(C)C)NC(=O)[C@H](CCC2CCCCC2)NC1=O (cyclo(FV[αMeP]VL[hCha]L[NMeF]F[NHCH2CH2SCH2CO])) | – | – | – | – | – | 8.63 | 7.25 | – | – | – |
| CC(C)C[C@@H]1NC(=O)[C@H](C(C)C)NC(=O)[C@]2(C)CCCN2C(=O)[C@H](C(C)C)NC(=O)[C@H](Cc2ccccc2)NC(=O)CSCCNC(=O)CNC(=O)[C@H](Cc2ccccc2)N(C)C(=O)[C@H](CC(C)C)NC(=O)[C@H](CCC2CCCCC2)NC1=O (cyclo(FV[αMeP]VL[hCha]L[NMeF]G[NHCH2CH2SCH2CO])) | – | – | – | – | – | 9.43 | 7.54 | – | 85 | – |
| CC(C)C[C@@H]1NC(=O)[C@H](C(C)C)NC(=O)[C@]2(C)CCCN2C(=O)[C@H](C(C)C)NC(=O)[C@H](Cc2ccccc2)NC(=O)CSCCNC(=O)[C@H](CC(C)C)NC(=O)[C@H](Cc2ccccc2)N(C)C(=O)[C@H](CC(C)C)NC(=O)[C@H](CCC2CCCCC2)NC1=O (cyclo(FV[αMeP]VL[hCha]L[NMeF]L[NHCH2CH2SCH2CO])) | – | – | – | – | – | 8.64 | 7.21 | – | – | – |
| CC(C)C[C@@H]1NC(=O)[C@H](C(C)C)NC(=O)[C@]2(C)CCCN2C(=O)[C@H](C(C)C)NC(=O)[C@H](Cc2ccccc2)NC(=O)CSCCNC(=O)[C@H](Cc2ccccc2)N(C)C(=O)[C@H](CC(C)C)NC(=O)[C@H](CCC2CCCCC2)NC1=O (cyclo(FV[αMeP]VL[hCha]L[NMeF][NHCH2CH2SCH2CO])) | – | – | – | – | – | 9.54 | 7.92 | – | – | – |
| CC(C)C[C@@H]1NC(=O)[C@H](C(C)C)NC(=O)[C@]2(C)CCCN2C(=O)[C@H](C(C)C)NC(=O)[C@H](Cc2ccccc2)NC(=O)CSCCNC(=O)[C@H](Cc2ccccc2)N(C)C(=O)[C@H](CC(C)C)NC(=O)[C@H](CCc2ccccc2)NC1=O (cyclo(FV[αMeP]VL[hPhe]L[NMeF][NHCH2CH2SCH2CO])) | – | – | – | – | – | 9.35 | 7.55 | – | – | – |
| CC(C)C[C@@H]1NC(=O)[C@H](C(C)C)NC(=O)[C@@H]2CCCN2C(=O)[C@H](C(C)C)NC(=O)[C@H](Cc2ccccc2)NC(=O)CSCCNC(=O)[C@H](Cc2ccccc2)N(C)C(=O)[C@H](CC(C)C)NC(=O)[C@H](Cc2cccc3ccccc23)NC1=O (cyclo([1Nal]L[NMeF][NHCH2CH2SCH2CO]FVPVL)) | – | – | – | – | – | 9.17 | 6.49 | – | 46 | – |
| CC(C)C[C@@H]1NC(=O)[C@](C)(C(C)C)NC(=O)[C@@H]2CCCN2C(=O)[C@H](C(C)C)NC(=O)[C@H](Cc2ccccc2)NC(=O)CSCCNC(=O)[C@H](Cc2ccccc2)N(C)C(=O)[C@H](CC(C)C)NC(=O)[C@H](Cc2cccc3ccccc23)NC1=O (cyclo([1Nal]L[NMeF][NHCH2CH2SCH2CO]FVP[αMeV]L)) | – | – | – | – | – | 9.36 | 6.92 | – | 69 | – |
| CC(C)C[C@@H]1NC(=O)[C@H](C(C)C)NC(=O)[C@]2(C)CCCN2C(=O)[C@H](C(C)C)NC(=O)[C@H](Cc2ccccc2)NC(=O)CSCCNC(=O)[C@H](Cc2ccccc2)N(C)C(=O)[C@H](CC(C)C)NC(=O)[C@H](Cc2cccc3ccccc23)NC1=O (cyclo([1Nal]L[NMeF][NHCH2CH2SCH2CO]FV[αMeP]VL)) | – | – | – | – | – | 9.11 | 7.52 | – | 86 | – |
| COC(=O)[C@H]1NC(=O)[C@H](C)NC(=O)[C@H](Cc2ccccc2)N(C)C(=O)[C@H](CC(C)C)NC(=O)[C@H](CCC2CCCCC2)NC(=O)[C@H](CC(C)C)NC(=O)[C@H](C(C)C)NC(=O)[C@]2(C)CCCN2C(=O)[C@H](C(C)C)NC(=O)[C@H](Cc2ccccc2)NC(=O)CSC1(C)C ({CH2CO}-FV[αMeP]VL[hCha]L[NMeF]A[Pen]-OMe; thioether N-10) | 63 | 23 | 3.9 | 1.9 | 0.001 | 8.45 | 7.43 | 3.3 | – | 10 |
